# Experimental data reported in paper PMC3547856, “Naphthoquinone Derivatives Exert Their Antitrypanosomal Activity via a Multi-Target Mechanism” (PLoS Neglected Tropical Diseases, 2013).
# Several values for one entry are separate records, joined by “and”; a condition that tells them apart may be missing. Identical values can stand only once. Entries after “also recorded” stand apart in the source; their conditions may differ. Like-named read-outs stand apart in the source and are kept apart here.
# Experiments:
# [1] = tested on: Trypanosoma brucei rhodesiense; experiment: T. b. rhodesiense in vitro growth inhibition; type: cell-based; settings: for IC50: Trypanosoma brucei, RHODESIENSE / STIB900, Figure 1, bloodstream form STIB 900 strain, read-out: IC50 against Trypanosoma brucei rhodesiense parasites
# Experimental: The synthesized compounds were then tested against T. b. rhodesiense parasites as previously reported, and their activities are shown in Figure 1 along with that of B6.
# T. b. rhodesiense in vitro growth inhibition activity of 1–3 (Fig. 1) was assessed using bloodstream form of STIB 900 strain, following the procedure reported in Orhan et al..
# [2] = tested on: permeabilized T. b. brucei bloodstream-form cells; experiment: Oxygen consumption in permeabilized bloodstream-form cells (Clark electrode); type: cell-based
# Experimental: Oxygen consumption was monitored in a thermostated vessel at 37°C with a Clark electrode (oxygraph). Measurements in permeabilized bloodstream-form T. brucei were done in buffer 1 (96.9 mM NaCl, 3.1 mM KCl, 5 mM MgCl2, 2 mM Na2HPO4, 90 mM Tris at pH 7.5). Batches of 2×10^7 cells were pelleted, washed in buffer 1 and incubated for 5′ on ice in 1 ml of buffer 1 containing 1 ng digitonin to permeabilize the cells. Subsequently the permeabilized cells were pelleted and washed twice with buffer 1 without digitonin after which the pellet was taken up in 1 ml buffer 1 and transferred to the oxygraph. Substrates and inhibitors were added as described in the text.
# B6 and SHAM were dissolved in DMSO. The DMSO concentration used in these oxygen consumption measurements was less than 0.7%.
# To determine whether B6 could exert its trypanocidal action also through this mechanism, respiration was monitored in permeabilized T. b. brucei bloodstream-form cells in the presence of B6 and/or SHAM (Fig. 7). SHAM is an inhibitor of TAO, which acts as the final electron acceptor in bloodstream form T. b. brucei.
# [3] = set-up: method as in earlier work; settings: cited from earlier work
# Trypanosoma = tested on: Trypanosoma; set-up: method as in earlier work; settings: cited from earlier work
# [4] = tested on: Trypanosoma brucei rhodesiense; set-up: method as in PMID 18353643; settings: cited from earlier work
# TbGK = TbGK (Trypanosoma brucei brucei, UniProt Q9NJP9); experiment: T. b. brucei glycerol kinase enzyme-coupled spectrophotometric assay; type: biochemical; settings: mean of three independent experiments; 25°C
# TbGK, sequence (Q9NJP9 whole entry): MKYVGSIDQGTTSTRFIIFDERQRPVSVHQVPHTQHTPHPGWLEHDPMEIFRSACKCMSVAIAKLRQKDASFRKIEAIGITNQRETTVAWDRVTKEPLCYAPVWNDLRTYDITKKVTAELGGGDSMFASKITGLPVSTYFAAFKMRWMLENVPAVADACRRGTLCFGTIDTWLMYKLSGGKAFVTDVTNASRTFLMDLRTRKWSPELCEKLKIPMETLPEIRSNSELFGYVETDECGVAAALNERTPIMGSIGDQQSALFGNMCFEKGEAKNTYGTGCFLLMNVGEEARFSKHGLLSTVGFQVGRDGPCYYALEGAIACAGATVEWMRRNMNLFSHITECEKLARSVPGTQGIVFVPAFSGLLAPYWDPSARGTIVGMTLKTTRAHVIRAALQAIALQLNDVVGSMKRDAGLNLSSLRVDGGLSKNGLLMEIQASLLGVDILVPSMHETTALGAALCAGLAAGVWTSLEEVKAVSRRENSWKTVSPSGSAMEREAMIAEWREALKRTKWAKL
# Experimental: The expression construct has been obtained by subcloning the corresponding GK gene (isolated from T. b. brucei strain Lister 427) from the formerly designed pET15-TbGK plasmid into vector pET28 to create the final expression plasmid pET28-TbGK (unpublished data). TbGK was then expressed in E. coli BL21(DE3)-CodonPlus-RIL grown in 1 liter LB medium supplemented with kanamycin (50 µg/ml) and chloramphenicol (34 µg/ml) for 16 h at 37°C. Expression was induced by adding 1 mM isopropyl β-d-thiogalactanopyranoside (IPTG), and growth was continued for another 2 h at 37°C. […] TbGK was eluted using a 10 column volumes linear imidazole-gradient using buffer A and buffer B. Eluted fractions were analyzed by SDS-PAGE. […] After overnight incubation at 16°C, the digested protein was concentrated and desalted using a Superdex 75 column equilibrated with buffer A. Protein concentration was determined at 280 nm (extinction coefficient = 81650 M^−1 cm^−1). […]
# The TbGK activity was measured using a modified version of a continuous enzyme-coupled spectrophotometric assay developed previously. […] The IC50 value of B6 was calculated as the mean of three independent experiments.
# TbGAPDH = TbGAPDH (Trypanosoma brucei brucei, UniProt P22512); experiment: T. b. brucei glyceraldehyde-3-phosphate dehydrogenase enzyme-coupled spectrophotometric assay; type: biochemical; settings: for IC50: 10 min pre-incubation
# TbGAPDH, sequence (P22512 whole entry): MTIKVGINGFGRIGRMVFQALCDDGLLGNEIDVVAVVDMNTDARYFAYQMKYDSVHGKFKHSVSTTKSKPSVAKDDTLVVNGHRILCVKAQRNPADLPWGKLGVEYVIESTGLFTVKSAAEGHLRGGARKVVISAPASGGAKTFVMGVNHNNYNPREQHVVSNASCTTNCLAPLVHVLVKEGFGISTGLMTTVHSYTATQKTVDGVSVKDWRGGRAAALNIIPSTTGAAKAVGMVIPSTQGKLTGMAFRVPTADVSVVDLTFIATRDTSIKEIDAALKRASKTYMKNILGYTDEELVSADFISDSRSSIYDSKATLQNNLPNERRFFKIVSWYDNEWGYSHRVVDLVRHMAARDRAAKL
# Experimental: The kinetics of the TbGAPDH reaction was monitored using a continuous enzyme-coupled spectrophotometric assay, as previously described. In brief, TbGAPDH activity was measured following the NADH oxidation at 340 nm, in a coupled assay with 3-phosphoglycerate kinase and using a Jasco V-550 spectrophotometer.
# All measurements were performed at 25°C in 0.01 M triethanolamine, pH 7.6, 1.7 mM ATP, 1 mM EDTA, 100 mM KCl, 5 mM MgSO4, 1.7 mM NaHCO3, 25 µg 3-phosphoglycerate kinase. The IC50 values were determined in a final volume of 1 ml in the presence of 120 ng TbGAPDH and 5.6 mM 3-phosphoglycerate (3-PGA), while varying the B6 concentration after a pre-incubation of enzyme plus inhibitor for 10 min. The reaction was started by the addition of 0.2 mM NADH. Each point of the curve was measured in triplicates and the value for IC50 was estimated from graphically plotted dose-response curves.
# The type of inhibition was determined with respect to NADH and 3-PGA in consideration of Michaelis-Menten steady-state conditions. To investigate the inhibition mechanism with respect to NADH, TbGAPDH was incubated for 10 min at room temperature with different inhibitor concentrations (0–15 µM) in a total volume of 1 ml. The reaction was initiated by the addition of 5.6 mM 3-PGA and NADH (ranging from 5 µM to 200 µM). The inhibition mechanism with respect to 3-PGA was determined in a similar way. To this end, TbGAPDH was incubated with varying inhibitor concentrations (10 nM–100 µM). The reaction was initiated by the addition of 0.2 mM NADH and 3-PGA (ranging from 50 µM to 5.6 mM). The α and Ki values were obtained from Dixon and secondary plots. The reported values represent the mean of two independent experiments.
# [5] = tested on: procyclic T. b. brucei strain Lister 427; experiment: Growth inhibition (LILIT) of procyclic T. b. brucei with or without glucose; type: cell-based
# Experimental: (§1) We used bloodstream and procyclic forms of T. b. brucei strain Lister 427, cell lines 449 [34], constitutively expressing the E. coli tetracycline (Tet) repressor gene via the chromosomally integrated plasmid pHD449 that also confers phleomycin resistance. Bloodstream forms were cultured in HMI-9 medium containing 10% heat-inactivated foetal calf serum (Invitrogen) and 0.18 µg/ml phleomycin (Cayla) at 37°C under water-saturated air with 5% CO2. Procyclic trypanosomes were grown in SDM79 medium supplemented with 15% foetal calf serum and 0.5 µg/ml phleomycin at 28°C under water-saturated air with 5% CO2. The glucose-depleted SDM-80 medium, first employed by Lamour et al., was supplemented with 5 µg/ml hemin, 9% (v/v) dialyzed “glucose free” heat-inactivated foetal calf serum (Sigma) and 1% (v/v) of normal heat-inactivated foetal calf serum (Invitrogen).
# (§2) The anti-trypanosomal activity tests were also performed on T. b. brucei according to the “Long Incubation Low Inoculation Test” (LILIT), [39] using cultured bloodstream and procyclic forms of T. b. brucei strain Lister 427, cell line 449 [34].
# Tests of growth inhibition by B6 were performed on procyclic trypanosomes cultured in medium containing glucose (SDM79 medium), resulting in glycolytic activity for the cells' main energy supply, or without glucose (SDM80 medium), where the proline is the main substrate for free energy production through mitochondrial metabolism. Under these latter conditions, the glycosomal GAPDH would still be needed for gluconeogenesis, to synthesize glucose 6-phosphate for production of glucoconjugates, but the gluconeogenic flux is assumed to be much lower than the glycolytic flux when glucose is present.
# [6] = tested on: bloodstream form T. b. brucei G6PDH RNAi cell line; experiment: Growth inhibition of bloodstream-form T. b. brucei G6PDH RNAi cell line; type: cell-based
# Excerpt: To provide support for the notion that the trypanocidal effect of B6 could in part be attributed to the generation of toxic ROS, we made use of an available bloodstream form T. b. brucei cell line in which glucose-6-phosphate dehydrogenase (G6PDH) expression can be knocked down by RNA interference (RNAi). Previously, it has been shown that this cell line grows equally well as wild-type cells under normal (reducing) growth conditions, but it is highly susceptible to ROS when the G6PDH expression is partially knocked down, an effect attributed to decreased NADPH production.
# [7] = tested on: T. b. brucei bloodstream-form mitochondria; experiment: ROS (H2O2) production by mitochondrial fraction, H2DCFDA fluorescence; type: cell-based; settings: 10 µM B6, in the presence of G3P
# Experimental: Bloodstream- and procyclic-form T. b. brucei cells (strain Lister 427, cell line 449) were cultured up to the exponential growth phase and homogenates were obtained by grinding the washed parasite pellets with silicon-carbide abrasive grain (mesh 300) in disruption buffer containing 250 mM sucrose, 25 mM Tris-HCl and l mM EDTA, pH 7.8 (STE buffer). Differential centrifugation was performed as follows: the suspension was taken up in another 3 ml STE buffer and centrifuged at 30 g for 3 min. The supernatant, representing the cell homogenate, was centrifuged at 1,500 g for 10 min giving the nuclear fraction. The post-nuclear supernatant was then centrifuged at 5,000 g for 10 min giving the large-granular (mitochondria-enriched) fraction as pellet. This fraction was resuspended in 300 µl STE buffer.
# The method used to measure H2O2 production in T. b. brucei mitochondria is based on the fluorogenic probe 2′,7′-dichlorodihydrofluorescein diacetate (H2DCFDA) which emits an intense green fluorescence only after deacetylation and subsequent oxidation. ROS production by the mitochondrial fraction of bloodstream form T. b. brucei was measured in a 96-well microtiter plate using a fluorescence plate reader (Victor Wallace multiplate reader).
# In each well, 0.25 mg mitochondrial protein/ml and 5 µM H2DCFDA to a final volume of 0.2 ml with 10 mM Tris-HCl, 50 mM KCl, 1 mM EDTA, pH 7.5 were present. […]
# mammalian cell lines = tested on: mammalian cell lines; set-up: method as in PMID 18353643; settings: ratio of ED50 values on mammalian cell lines and trypanosomes; cited from earlier work
# [8] = tested on: bloodstream-form T. b. brucei strain Lister 427; experiment: Growth inhibition (LILIT) of bloodstream-form T. b. brucei; type: cell-based; settings: cultured bloodstream form
# Experimental: as §1, §2
structure (smiles),measurement,setting,value
"O=C1C=C(Oc2ccccc2)C(=O)c2c(O)cccc21 [Compound 3, 8-hydroxy-2-phenoxy-[1,4]naphthoquinone]",IC50,[1],850 nM
"O=C(NO)c1ccccc1O [SHAM, salicylhydroxamic acid, reference compound]",respiration,"[2]; 2 mM SHAM, 10 mM G3P as electron donor",inhibited respiration completely
"Nc1ccc(OC2=CC(=O)c3ccccc3C2=O)cc1 [Compound 1, 2-(4-amino-phenoxy)-[1,4]naphthoquinone]",IC50,[1],570 nM
same,times less active than B6,[1]; anti-T. b. rhodesiense activity relative to B6,7 times
"O=C1C(Oc2ccccc2)=CC(=O)c2c(O)cccc21 [Compound 2, 5-hydroxy-2-phenoxy-[1,4]naphthoquinone]",IC50,[1],4400 nM
CC(C)=CCC1=C(O)C(=O)c2ccccc2C1=O [lapachol],toxic effects in humans,[3],no serious toxic effects in humans
same,anti-trypanosomal profile,Trypanosoma,marked anti-trypanosomal profile
"O=C1C=C(Oc2ccccc2)C(=O)c2ccccc21 [B6, 2-phenoxy-1,4-naphthoquinone]",IC50,"[4]; Figure 1, lead B6, read-out: IC50 against Trypanosoma brucei rhodesiense parasites",80 nM
same,ED50 against Trypanosoma brucei rhodesiense,[4]; in vitro cultured parasites,80 nM
same,IC50,TbGK,900 ± 300 nM
same,IC50,"TbGAPDH; then 1:10 dilution of enzyme and inhibitor, read-out: IC50 TbGAPDH after dilution 1:10",9.98 ± 3.53 µM
same,IC50,"TbGAPDH; standard conditions, without dilution, read-out: IC50 TbGAPDH",7.25 ± 1.62 µM
same,Ki,TbGAPDH; variation of 3-PGA,5 µM and 4.99 µM
same,Ki,TbGAPDH; variation of NADH,3.6 µM
same,α value,TbGAPDH; with respect to 3-PGA,0.4
same,α value,TbGAPDH; with respect to NADH,0.6
same,type of inhibition of TbGAPDH,"TbGAPDH; with respect to NADH and 3-PGA, double reciprocal plots",non-competitive inhibitor (mixed type)
same,"fold more susceptible, procyclic versus bloodstream-form","[5]; glucose-grown cells, strain Lister 427",100 fold
same,ED50 procyclic trypanosomes,[5]; medium containing glucose (SDM79),0.25 ± 0.09 µM and 0.25 µM
same,ED50 procyclic trypanosomes,"[5]; without glucose (SDM80), proline metabolism",0.67 ± 0.16 µM
same,ED50 induced RNAi cell line,[6]; G6PDH expression knocked down by RNAi,0.25 µM
same,ED50 non-induced RNAi cell line,[6]; non-induced,10.8 µM
same,ROS production,[7],able to generate radicals in a significant way; also recorded: considerable production of ROS
same,selectivity index,mammalian cell lines,74
same,oxygen consumption rate,"[2]; cells respiring on 10 mM G3P, absence and presence of SHAM",the oxygen consumption rate increased
same,ED50 bloodstream-form T. b. brucei strain Lister 427,[8],24.8 µM
